Test results reported in patent US10941157B2, “Pesticidal compositions and uses thereof” (Gilead Apollo, LLC, priority 2015, dated 2021).
≈ marks a conversion by molar mass, not a printed value.

Assays:
Assay type in all cases: cell-based
Rhizoctonia solani (Rs) = assay: In vitro pathogen growth inhibition assay, Rs (mycelial plugs); settings: Rhizoctonia solani, 48 h, ≥90% inhibition; mycelial plugs; 48 hours vs 2% DMSO control; read-out: Compound Concentration (ppm) sufficient for ≥90% inhibition of growth, Rs
Outline: (§1)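 Spores of Dm, Fv and Pc were diluted in 17% V8 liquid medium; Rs used 1.5 mm mycelial plugs in ¼ PDB. Compounds from 2.5 mg/ml DMSO stocks were combined with inoculum, growth was read by OD600 at 24 and 48 h with blank subtraction, and the reported value is the concentration giving ≥90% inhibition.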

Diplodia maydis (Dm) = assay: In vitro pathogen growth inhibition assay, Dm; settings: Stenocarpella maydis, 48 h, ≥90% inhibition; 48 hours vs 2% DMSO control; read-out: Compound Concentration (ppm) sufficient for ≥90% inhibition of growth, Dm
Outline: as §1

[1] = test system: Collectotrichum graminicola (Cg); assay: In vitro pathogen growth inhibition assay, Cg; settings: 48 h, ≥90% inhibition; 48 hours vs 2% DMSO control; read-out: Compound Concentration (ppm) sufficient for ≥90% inhibition of growth, Cg
Outline: (§2)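 Value reported is the compound concentration reaching ≥90% growth inhibition, from OD readings at 24 and 48 h after blank subtraction, confirmed visually. Inoculum was spores diluted in 17% V8 medium, except Rs, using 1.5 mm mycelial plugs in ¼ PDB; actual compound concentration corrected via OD600.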

Septoria tritici (St) = assay: In vitro pathogen growth inhibition assay, St; settings: Zymoseptoria tritici, 48 h, ≥90% inhibition; 48 hours vs 2% DMSO control; read-out: Compound Concentration (ppm) sufficient for ≥90% inhibition of growth, St
Outline: as §2

[2] = test system: Phytophthora capsici (Pc); assay: In vitro pathogen growth inhibition assay, Pc; settings: 48 h, ≥90% inhibition, 48 hours vs 2% DMSO control, read-out: Compound Concentration (ppm) sufficient for ≥90% inhibition of growth, Pc
Outline: as §1

[3] = test system: Fusarium moniliforme (Fm); assay: In vitro pathogen growth inhibition assay, Fm; settings: Fusarium verticillioides; ≥90% inhibition; 48 hours vs 2% DMSO control; read-out: Compound Concentration (ppm) sufficient for ≥90% inhibition of growth, Fm
Outline: as §2

[4] = test system: Fusarium virguliforme (Fv); assay: In vitro pathogen growth inhibition assay, Fv; settings: ≥90% inhibition, 48 hours vs 2% DMSO control, read-out: Compound Concentration (ppm) sufficient for ≥90% inhibition of growth, Fv
Outline: as §1

Botrtyis cinerea (Bc) = assay: In vitro pathogen growth inhibition assay, Bc; settings: 48 h, ≥90% inhibition; 48 hours vs 2% DMSO control; read-out: Compound Concentration (ppm) sufficient for ≥90% inhibition of growth, Bc
Outline: as §2

Row | SMILES | IC90 (Rhizoctonia solani (Rs)) | IC90 (Diplodia maydis (Dm)) | IC90 [1] | IC90 (Septoria tritici (St)) | IC90 [2] | IC90 [3] | IC90 [4] | IC90 (Botrtyis cinerea (Bc))
1 | COc1ccccc1[C@H](Cn1c(=O)n(C(C)(C)C(=O)NC(C)C)c(=O)c2c(C)c(-n3cccn3)sc21)OCC(C)C [Compound I-119] | 2 µg/mL (≈ 3.44 µM) | ≥ 2 µg/mL | 10 µg/mL (≈ 17.2 µM) | > 50 µg/mL | > 50 µg/mL | 0.4 µg/mL (≈ 0.688 µM) | 10 µg/mL (≈ 17.2 µM) | 2 µg/mL (≈ 3.44 µM)
2 | COc1ccccc1[C@H](Cn1c(=O)n(C(C)(C)C(=O)N2CCCC2)c(=O)c2c(C)c(-n3cccn3)sc21)OCC(C)C [Compound I-120] | 2 µg/mL (≈ 3.37 µM) | 2 µg/mL (≈ 3.37 µM) | 2 µg/mL (≈ 3.37 µM) | > 50 µg/mL | > 50 µg/mL | 0.4 µg/mL (≈ 0.674 µM) | 10 µg/mL (≈ 16.8 µM) | 2 µg/mL (≈ 3.37 µM)
3 | COc1ccccc1[C@H](Cn1c(=O)n(C(C)(C)C(=O)N2CCCCC2)c(=O)c2c(C)c(-n3cccn3)sc21)OCC(C)C [Compound I-121] | 50 µg/mL (≈ 82.3 µM) | ≥ 2 µg/mL | 10 µg/mL (≈ 16.5 µM) | > 50 µg/mL | > 50 µg/mL | 0.4 µg/mL (≈ 0.658 µM) | > 50 µg/mL | 2 µg/mL (≈ 3.29 µM)
4 | COc1ccc(F)cc1[C@H](Cn1c(=O)n(C(C)(C)C(=O)N2CCCC2)c(=O)c2c(C)c(-n3cccn3)sc21)OC1CCC(=O)CC1 [Compound I-122] | 2 µg/mL (≈ 3.07 µM) | 10 µg/mL (≈ 15.3 µM) | ≥ 2 µg/mL | > 50 µg/mL | > 50 µg/mL | 0.4 µg/mL (≈ 0.614 µM) | ≥ 2 µg/mL | 2 µg/mL (≈ 3.07 µM)
5 | COc1ccc(F)cc1[C@H](Cn1c(=O)n(C(C)(C)C(=O)N2CCCC2)c(=O)c2c(C)c(-n3cccn3)sc21)O[C@H]1CC[C@@H](O)CC1 [Compound I-123] | 10 µg/mL (≈ 15.3 µM) | 10 µg/mL (≈ 15.3 µM) | ≥ 10 µg/mL | > 50 µg/mL | > 50 µg/mL | 0.4 µg/mL (≈ 0.612 µM) | 2 µg/mL (≈ 3.06 µM) | 2 µg/mL (≈ 3.06 µM)
6 | COc1ccc(F)cc1[C@H](Cn1c(=O)n(C(C)(C)C(N)=O)c(=O)c2c(C)c(-n3nccn3)sc21)OC1CCC(=O)CC1 [Compound I-124] | 2 µg/mL (≈ 3.34 µM) | ≥ 2 µg/mL | 10 µg/mL (≈ 16.7 µM) | > 50 µg/mL | 50 µg/mL (≈ 83.5 µM) | 0.4 µg/mL (≈ 0.668 µM) | 10 µg/mL (≈ 16.7 µM) | ≥ 0.4 µg/mL
7 | CCO[C@@H](Cn1c(=O)n(C(C)(C)C(=O)NC(C)C)c(=O)c2c(C)c(-n3cccn3)sc21)c1cc(F)ccc1OC [Compound I-125] | ≥ 2 µg/mL | > 50 µg/mL | ≥ 2 µg/mL | > 50 µg/mL | > 50 µg/mL | 0.4 µg/mL (≈ 0.7 µM) | 0.4 µg/mL (≈ 0.7 µM) | 2 µg/mL (≈ 3.5 µM)
8 | COc1ccc(F)cc1[C@H](Cn1c(=O)n(C(C)C(=O)NC(C)C)c(=O)c2c(C)c(-n3cccn3)sc21)OC(C)C (some centres unmarked) [Compound I-126] | 2 µg/mL (≈ 3.5 µM) | 2 µg/mL (≈ 3.5 µM) | 2 µg/mL (≈ 3.5 µM) | 50 µg/mL (≈ 87.5 µM) | 50 µg/mL (≈ 87.5 µM) | 0.4 µg/mL (≈ 0.7 µM) | 1.2 µg/mL (≈ 2.1 µM) | 2 µg/mL (≈ 3.5 µM)
9 | COc1ccc(F)cc1[C@H](Cn1c(=O)n([C@H](C)C(=O)NC(C)C)c(=O)c2c(C)c(-n3cccn3)sc21)OC(C)C [Compound I-127] | 2 µg/mL (≈ 3.5 µM) | 2 µg/mL (≈ 3.5 µM) | 2 µg/mL (≈ 3.5 µM) | > 50 µg/mL | > 50 µg/mL | 0.4 µg/mL (≈ 0.7 µM) | 0.4 µg/mL (≈ 0.7 µM) | 2 µg/mL (≈ 3.5 µM)
10 | COc1ccc(F)cc1[C@H](Cn1c(=O)n(CC(=O)N2CCCC2)c(=O)c2c(C)c(-n3cccn3)sc21)OC(C)C [Compound I-128] | ≥ 2 µg/mL | > 10 µg/mL | 10 µg/mL (≈ 17.6 µM) | > 50 µg/mL | > 50 µg/mL | 0.4 µg/mL (≈ 0.702 µM) | 2 µg/mL (≈ 3.51 µM) | 2 µg/mL (≈ 3.51 µM)
11 | COc1ccc(F)cc1[C@H](Cn1c(=O)n(C(C)(C)C(=O)NC(C)C)c(=O)c2c(C)c(-n3cccn3)sc21)OCCO [Compound I-129] | 2 µg/mL (≈ 3.4 µM) | 10 µg/mL (≈ 17 µM) | 2 µg/mL (≈ 3.4 µM) | > 50 µg/mL | 50 µg/mL (≈ 85.1 µM) | 0.4 µg/mL (≈ 0.681 µM) | 2 µg/mL (≈ 3.4 µM) | 2 µg/mL (≈ 3.4 µM)
12 | COc1ccc(F)cc1[C@H](Cn1c(=O)n(C(C)(C)C(=O)N2CCCC2)c(=O)c2c(C)c(-n3nccn3)sc21)OCCO [Compound I-130] | ≥ 2 µg/mL | ≥ 2 µg/mL | 2 µg/mL (≈ 3.33 µM) | ≥ 50 µg/mL | 50 µg/mL (≈ 83.2 µM) | 0.4 µg/mL (≈ 0.666 µM) | ≥ 0.4 µg/mL | 2 µg/mL (≈ 3.33 µM)
13 | COc1ccc(F)cc1[C@H](Cn1c(=O)n(C(C)(C)C(=O)N(C)C)c(=O)c2c(C)c(-n3nccn3)sc21)OC(C)C [Compound I-131] | ≥ 0.4 µg/mL | 2 µg/mL (≈ 3.49 µM) | 10 µg/mL (≈ 17.5 µM) | > 50 µg/mL | > 50 µg/mL | 0.4 µg/mL (≈ 0.698 µM) | 0.4 µg/mL (≈ 0.698 µM) | 0.4 µg/mL (≈ 0.698 µM)
14 | CNC(=O)C(C)(C)n1c(=O)c2c(C)c(-n3nccn3)sc2n(C[C@H](OC(C)C)c2cc(F)ccc2OC)c1=O [Compound I-132] | ≥ 2 µg/mL | 10 µg/mL (≈ 17.9 µM) | ≥ 2 µg/mL | > 50 µg/mL | > 50 µg/mL | 0.4 µg/mL (≈ 0.716 µM) | 0.4 µg/mL (≈ 0.716 µM) | 2 µg/mL (≈ 3.58 µM)
15 | COc1ccc(F)cc1[C@H](Cn1c(=O)n(C(C)(C)C(=O)N2CCCC2)c(=O)c2c(C)c(-n3nccn3)sc21)OC[C@H](C)O [Compound I-133] | ≥ 2 µg/mL | 2 µg/mL (≈ 3.25 µM) | 0.4 µg/mL (≈ 0.651 µM) | ≥ 50 µg/mL | 50 µg/mL (≈ 81.3 µM) | 0.4 µg/mL (≈ 0.651 µM) | 0.4 µg/mL (≈ 0.651 µM) | 2 µg/mL (≈ 3.25 µM)
16 | COc1ccc(F)cc1[C@H](Cn1c(=O)n(C(C)(C)C(=O)NC(C)C)c(=O)c2c(C)c(-n3cccn3)sc21)OC[C@@H](C)O [Compound I-134] | ≥ 0.4 µg/mL | ≥ 2 µg/mL | 0.4 µg/mL (≈ 0.665 µM) | ≥ 10 µg/mL | ≥ 10 µg/mL | 0.4 µg/mL (≈ 0.665 µM) | 2 µg/mL (≈ 3.32 µM) | 2 µg/mL (≈ 3.32 µM)
17 | COc1ccc(F)cc1[C@H](Cn1c(=O)n(C(C)(C)C(=O)N2CCCC2)c(=O)c2c(C)c(-n3cccn3)sc21)OC[C@@H](C)O [Compound I-135] | ≥ 2 µg/mL | ≥ 10 µg/mL | 10 µg/mL (≈ 16.3 µM) | 50 µg/mL (≈ 81.5 µM) | > 50 µg/mL | 0.4 µg/mL (≈ 0.652 µM) | 2 µg/mL (≈ 3.26 µM) | 2 µg/mL (≈ 3.26 µM)
18 | COc1ccc(F)cc1[C@H](Cn1c(=O)n(C(C)(C)C(=O)NC(C)C)c(=O)c2c(C)c(-n3cccn3)sc21)OC[C@H](C)O [Compound I-136] | ≥ 2 µg/mL | ≥ 10 µg/mL | 10 µg/mL (≈ 16.6 µM) | > 50 µg/mL | > 50 µg/mL | 0.4 µg/mL (≈ 0.665 µM) | 2 µg/mL (≈ 3.32 µM) | 2 µg/mL (≈ 3.32 µM)
19 | COc1ccc(F)cc1[C@H](Cn1c(=O)n(C(C)(C)C(=O)NC(C)C)c(=O)c2c(C)c(-n3cccn3)sc21)OCC(C)(C)O [Compound I-137] | ≥ 2 µg/mL | ≥ 2 µg/mL | 2 µg/mL (≈ 3.25 µM) | ≥ 10 µg/mL | ≥ 50 µg/mL | 0.4 µg/mL (≈ 0.65 µM) | ≥ 0.4 µg/mL | 2 µg/mL (≈ 3.25 µM)
